Holding throughout (assay type): cell-based
The target in assay [1] is T1, human prostanoid TP receptor (Homo sapiens, UniProt P21731).
T1 construct: expressed in transfected cells
T1 sequence (P21731 1-343): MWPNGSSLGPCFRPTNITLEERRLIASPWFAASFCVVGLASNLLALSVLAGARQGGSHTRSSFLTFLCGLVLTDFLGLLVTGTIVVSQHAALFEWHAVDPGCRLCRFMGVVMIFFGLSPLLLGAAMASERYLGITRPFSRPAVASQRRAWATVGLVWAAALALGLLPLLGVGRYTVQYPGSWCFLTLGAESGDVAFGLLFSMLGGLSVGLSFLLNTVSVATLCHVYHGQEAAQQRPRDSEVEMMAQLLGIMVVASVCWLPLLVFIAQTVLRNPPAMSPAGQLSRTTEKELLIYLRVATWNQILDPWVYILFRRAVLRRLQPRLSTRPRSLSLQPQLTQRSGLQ
Kind of assay: FLIPR Ca2+ signaling PG antagonist assay, TP stable cell line. The conditions noted are these: HEK-293 EBNA cells, human recombinant TP, no exogenous G-protein; standard agonist U-46619. In outline:
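HEK-293 EBNA stable lines; EP2 co-expressed with chimeric Gqs, EP1/IP/TP with no exogenous G protein. Fluo-4AM-loaded cells pretreated 4.5 min at 37 °C with compound (0.1–30 μM; TP 0.067–1 μM), then standard agonist (PGE2, cicaprost, U-46619) 10^−11–10^−5 M (TP 10^−12–10^−6 M); peak fluorescence read 3.5 min, nonlinear regression.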

Assay [2] has as its target T2, human prostanoid FP receptor (Homo sapiens, UniProt P43088).
T2 construct: expressed in transfected cells
Kind of assay: FLIPR Ca2+ signaling PG antagonist assay, FP stable cell line. The conditions noted are these: HEK-293 EBNA cells, human recombinant FP, no exogenous G-protein; standard agonist 17-phenyl-PGF2α. In outline: (§1)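 Stable HEK-293 EBNA lines (DP1 with chimeric Gqs, EP3 with Gqi, EP1 and FP without exogenous G protein) were Fluo-4AM-loaded and pretreated 4.5 min at 37 °C with compound (0.1–30 μM). Agonist (BW 245C for DP1, PGE2 for EP1/EP3, 17-phenyl-PGF2α for FP) was then added at 10^−11–10^−5 M. Peak Ca2+ fluorescence was taken relative to agonist at 10^−6 M.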

For assay [3], the target named is T3, human prostanoid DP1 receptor (Homo sapiens, UniProt Q13258).
T3 construct: expressed in transfected cells
T3 sequence (Q13258 1-359): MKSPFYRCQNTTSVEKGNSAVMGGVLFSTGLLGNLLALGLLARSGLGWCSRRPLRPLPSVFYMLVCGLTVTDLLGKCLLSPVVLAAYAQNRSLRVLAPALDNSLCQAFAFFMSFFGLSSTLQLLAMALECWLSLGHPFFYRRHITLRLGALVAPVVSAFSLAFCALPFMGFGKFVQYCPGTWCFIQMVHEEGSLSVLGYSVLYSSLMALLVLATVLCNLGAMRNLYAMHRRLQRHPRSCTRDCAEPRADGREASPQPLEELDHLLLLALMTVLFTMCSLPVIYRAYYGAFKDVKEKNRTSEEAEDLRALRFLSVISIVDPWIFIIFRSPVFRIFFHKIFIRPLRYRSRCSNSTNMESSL
Kind of assay: FLIPR Ca2+ signaling PG antagonist assay, DP1 stable cell line. The conditions noted are these: HEK-293 EBNA cells, human recombinant DP1 with chimeric Gqs; standard agonist BW 245C; read-out: DP (Kb, PG antagonist activity). In outline: as §1

Data on 24 compounds can be found in patent US10988474B2, “Compounds acting at multiple prostaglandin receptors giving a general anti-inflammatory response” (ALLERGAN, INC., priority 2011, dated 2021).

Broadly, the Kb is the equilibrium dissociation constant of an antagonist, usually derived from a functional assay.

T2 sequence (P43088 whole entry): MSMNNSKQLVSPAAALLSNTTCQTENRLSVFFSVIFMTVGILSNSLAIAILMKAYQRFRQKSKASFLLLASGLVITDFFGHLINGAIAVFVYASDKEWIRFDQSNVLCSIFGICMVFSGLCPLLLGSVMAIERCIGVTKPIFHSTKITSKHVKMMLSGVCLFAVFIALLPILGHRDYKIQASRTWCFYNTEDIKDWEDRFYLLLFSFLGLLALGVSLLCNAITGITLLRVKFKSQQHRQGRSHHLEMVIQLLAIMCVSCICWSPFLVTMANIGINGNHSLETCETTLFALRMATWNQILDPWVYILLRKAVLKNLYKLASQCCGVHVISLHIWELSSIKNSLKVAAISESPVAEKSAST

With `CC(C)COc1c(F)cc(Cl)cc1Cn1ncc2cc(C(=O)O)ccc21` [Example 47, 1-(5-Chloro-3-Fluoro-2-Isobutoxy-Benzyl)-1H-Indazole-5-Carboxylic Acid], the Kb in assay [1] is no less than 10000 nM; in assay [2], 4700 nM; in assay [3] it was 700 nM.

For the compound `CC(C)COc1ccc(S(C)(=O)=O)cc1Cn1ncc2cc(C(=O)O)ccc21` [Example 48, 1-(2-Isobutoxy-5-Methanesulfonyl-Benzyl)-1H-Indazole-5-Carboxylic Acid], the antagonist dissociation constant (Kb) in assay [1] was 500 nM; in assay [2] it was no less than 10000 nM; in assay [3], no less than 10000 nM.

Turning to `CC(C)COc1cc(Cl)c(Cl)cc1Cn1ncc2cc(C(=O)O)ccc21` [Example 49, 1-(4,5-Dichloro-2-Isobutoxy-Benzyl)-1H-Indazole-5-Carboxylic Acid], the Kb worked out at 6 nM in assay [1], 70 nM in assay [2] and 3500 nM in assay [3].

As to `Cc1ccc(OCC(C)C)c(Cn2ncc3cc(C(=O)O)ccc32)n1` [Example 50, 1-(3-Isobutoxy-6-Methyl-Pyridin-2-ylmethyl)-1H-Indazole-5-Carboxylic Acid], the antagonist dissociation constant (Kb) in assay [1] came to 5700 nM; in assay [2] it was 4900 nM; in assay [3], 2400 nM.

For the compound `CCC(CC)Oc1ccc(Br)cc1Cn1ncc2cc(C(=O)O)ccc21` [Example 51, 1-[5-Bromo-2-(1-Ethyl-Propoxy)-Benzyl]-1H-Indazole-5-Carboxylic Acid], the antagonist equilibrium constant (Kb) in assay [1] is 50 nM; in assay [2] it was 110 nM; in assay [3] it was 600 nM.

For `CC(C)(C)COc1ccc(Br)cc1Cn1ncc2cc(C(=O)O)ccc21` [Example 52, 1-[5-Bromo-2-(2,2-Dimethyl-Propoxy)-Benzyl]-1H-Indazole-5-Carboxylic Acid], the Kb was 2 nM in assay [1], 11 nM in assay [2] and 2300 nM in assay [3].

On to `CC(C)(O)COc1ccc(Br)cc1Cn1ncc2cc(C(=O)O)ccc21` [Example 53, 1-[5-Bromo-2-(2-Hydroxy-2-Methyl-Propoxy)-Benzyl]-1H-Indazole-5-Carboxylic Acid], for which the figures for the Kb in assay [1], in assay [2] and in assay [3] were 1200 nM, 230 nM and no less than 10000 nM, respectively.

For the compound `CC(C)COc1ccc(O)cc1Cn1ncc2cc(C(=O)O)ccc21` [Example 54], the antagonist equilibrium constant (Kb) in assay [1] is 640 nM; in assay [2] it was 1100 nM; in assay [3] it was 9900 nM.

For `CC(C)COc1ccc(OCC(F)F)cc1Cn1ncc2cc(C(=O)O)ccc21` [Example 55, 1-[5-(2,2-Difluoro-Ethoxy)-2-Isobutoxy-Benzyl]-1H-Indazole-5-Carboxylic Acid], the values for the Kb in assay [1], in assay [2] and in assay [3] were 300 nM, 40 nM and 1200 nM, respectively.

For the compound `CC(C)COc1ccc(OC(F)F)cc1Cn1ncc2cc(C(=O)O)ccc21` [Example 56, 1-(5-Difluoromethoxy-2-Isobutoxy-Benzyl)-1H-Indazole-5-Carboxylic Acid], the values for the antagonist dissociation constant (Kb) in assay [1], in assay [2] and in assay [3] were 5 nM, 24 nM and 1800 nM, respectively.

As for `CC(C)COc1ccc(Cl)cc1Cn1ncc2cc(C(=O)O)cnc21` [Example 57, 1-(5-Chloro-2-Isobutoxy-Benzyl)-1H-Pyrazolo[3,4-B]Pyridine-5-Carboxylic Acid], the Kb in assay [1] stood at 150 nM; in assay [2], 190 nM; in assay [3], 5500 nM.

As to `CC(C)COc1ccc(OC(F)(F)F)cc1Cn1ncc2cc(C(=O)O)cnc21` [Example 58, 1-(2-Isobutoxy-5-Trifluoromethoxy-Benzyl)-1H-Pyrazolo[3,4-B]Pyridine-5-Carboxylic Acid], the antagonist dissociation constant (Kb) in assay [1] is 70 nM; in assay [2] it was 60 nM; in assay [3], 1800 nM.

As to `CCC(CC)COc1ccc(Br)cc1Cn1nc(C)c2cc(C(=O)O)cnc21` [Example 59, 1-[5-Bromo-2-(2-Ethyl-Butoxy)-Benzyl]-3-Methyl-1H-Pyrazolo[3,4-B]Pyridine-5-Carboxylic Acid], the results for the antagonist equilibrium constant (Kb) in assay [1], in assay [2] and in assay [3] were 320 nM, 1300 nM and 520 nM, respectively.

As for `CCC(CC)COc1ccc(Cl)cc1Cn1nc(C)c2cc(C(=O)O)cnc21` [Example 60, 1-[5-Chloro-2-(2-Ethyl-Butoxy)-Benzyl]-3-Methyl-1H-Pyrazolo[3,4-B]Pyridine-5-Carboxylic Acid], the antagonist dissociation constant (Kb) in assay [1] is 410 nM; in assay [2] it was 2500 nM; in assay [3], 580 nM.

On to `Cc1nn(Cc2cc(Cl)ccc2OCC(C)C)c2ncc(C(=O)O)cc12` [Example 61, 1-(5-Chloro-2-Isobutoxy-Benzyl)-3-Methyl-1H-Pyrazolo[3,4-B]Pyridine-5-Carboxylic Acid], for which the Kb in assay [1] came out at 300 nM; in assay [2] it was 1500 nM; in assay [3], 740 nM.

For `CCC(CC)COc1ccc(Cl)cc1Cn1ncc2cc(C(N)=O)ncc21` [Example 62, 1-[5-Chloro-2-(2-Ethyl-Butoxy)-Benzyl]-1H-Pyrazolo[3,4-C]Pyridine-5-Carboxylic Acid Amide], the Kb is no less than 10000 nM in assay [1], no less than 10000 nM in assay [2] and 5800 nM in assay [3].

Consider `CCC(CC)COc1ccc(Cl)cc1Cn1ncc2cc(C(=O)O)ncc21` [Example 63, 1-[5-Chloro-2-(2-Ethyl-Butoxy)-Benzyl]-1H-Pyrazolo[3,4-C]Pyridine-5-Carboxylic Acid], for which the Kb was 180 nM in assay [1], 2400 nM in assay [2] and no less than 10000 nM in assay [3].

Consider `CCc1nn(Cc2cc(Br)ccc2OCC(C)C)c2ccc(C(=O)O)cc12` [Example 64, 1-(5-Bromo-2-Isobutoxy-Benzyl)-3-Ethyl-1H-Indazole-5-Carboxylic Acid], for which the antagonist equilibrium constant (Kb) was found to be 8 nM in assay [1], 190 nM in assay [2] and 260 nM in assay [3].

For `CCc1nn(Cc2cc(Br)ccc2OCC(CC)CC)c2ccc(C(=O)O)cc12` [Example 65, 1-[5-Bromo-2-(2-Ethyl-Butoxy)-Benzyl]-3-Ethyl-1H-Indazole-5-Carboxylic Acid], the Kb in assay [1] came to 52 nM; in assay [3], 1500 nM. The “FP (Kb, PG antagonist activity)” value in assay [2] is recorded as “PAg”.

Turning to `Cc1cc2cc(C(=O)O)ccc2n1Cc1cc(Br)ccc1OCC(C)C` [Example 66, 1-(5-Bromo-2-Isobutoxy-Benzyl)-2-Methyl-1H-Indole-5-Carboxylic Acid], the antagonist dissociation constant (Kb) in assay [1] is 320 nM; in assay [2] it was 23 nM; in assay [3], no less than 10000 nM.

Consider `CC(C)COc1ccc(Br)cc1Cn1ccc2cc(C(=O)O)ccc21` [Example 67, 1-(5-Bromo-2-Isobutoxy-Benzyl)-1H-Indole-5-Carboxylic Acid], for which the Kb is 160 nM in assay [1], 100 nM in assay [2] and no less than 10000 nM in assay [3].

As for `CCC(CC)COc1ccc(Br)cc1Cn1c(C)cc2cc(C(=O)O)ccc21` [Example 68, 1-[5-Bromo-2-(2-Ethyl-Butoxy)-Benzyl]-2-Methyl-1H-Indole-5-Carboxylic Acid], the antagonist dissociation constant (Kb) in assay [1], in assay [2] and in assay [3] was no less than 10000 nM in each case.

In the case of `CCC(CC)COc1ccc(Br)cc1Cn1ccc2cc(C(=O)O)ccc21` [Example 69, 1-[5-Bromo-2-(2-Ethyl-Butoxy)-Benzyl]-1H-Indole-5-Carboxylic Acid], the results for the Kb in assay [1], in assay [2] and in assay [3] were 550 nM, 800 nM and 3700 nM, respectively.

Regarding `CCC(CC)COc1ccc(Br)cc1Cn1ccc2ccc(C(=O)O)cc21` [Example 70, 1-[5-Bromo-2-(2-Ethyl-Butoxy)-Benzyl]-1H-Indole-6-Carboxylic Acid], the antagonist equilibrium constant (Kb) is 320 nM in assay [1], no less than 10000 nM in assay [2] and 2200 nM in assay [3].
